Experimental findings from patent US12246095B2, “Oral dosage forms comprising a hops extract” (The New Zealand Institute for Plant and Food Research …, priority 2018, dated 2025) are described below.

This assay deals with Hutu80 enteroendocrine cells. In words: Intracellular calcium in Hutu80 enteroendocrine cells as marker of Tas2R activation. It is filed as cell-based, human. The conditions noted are these: for EC 50: Hutu-80, change in intracellular calcium at 5 min, doses 200 to 0.2 μM, Pacific Gem extract and purified acids. The method, then: The capacity for hops extracts to activate bitter taste receptors was assessed using intracellular calcium concentrations [Ca2+]i as a marker of both Tas2R activation and appetite suppressing hormone release. A screening assay was carried out to compare the effects of high alpha acid and low alpha acid hops extracts on intracellular calcium in Hutu80 enteroendocrine cells. The acid composition of the high alpha acid hops was alpha acid (13.9%), beta acid (7.4%). The acid composition of the low alpha acid hops was alpha acid (2.7%) beta acid (5.0%).
An EC50 dose response showing the relative change in intracellular calcium in Hutu80 enteroendocrine cells at 5 min following the addition of either a high alpha acid (Pacific Gem, 13.9%) or low alpha acid (Wai-iti, 2.7%) hops extract is shown in FIG. 1 and Table 1.
Activation of human TAS2Rs receptors was measured by monitoring variations in intracellular Ca^2+ concentrations ([Ca^2+]i) using a Flurostar Omega (BMG LABTECH, Germany) (excitation 485 nm/emission 520 nm).
Hutu-80 cells (Cat #HTB-40, ATCC Manassas, Virginia) were seeded in supplemented MEM (Cat #11095-080, Thermo Fisher, Walthan, Massachusetts) into Poly-Lysin-coated 96-well black wall, clear bottom plates (Cat #356640, Corning Inc. New York) at a density of 3.5×10^5 cells/ml, 100 μl/wel, cultured overnight and then loaded with the Ca^2+-sensitive fluorescent dye Fluo 4-AM (Cat #F14201, Thermo Fisher, Walthan, Massachusetts), following suppliers guidelines. […]
Compounds to test were prepared in DMSO (Cat #D8418, Sigma, St. Louis, Missouri) and transferred onto the cells immediately prior to commencing of the assay measurements. To obtain a baseline, fluorescence signals (excitation 485 nm/emission 520 nm) were measured immediately before the addition of compounds on the cells.
The change in intracellular calcium in Hutu80 enteroendocrine cells was measured at 5 min following the addition of purified hops acids at doses of 200, 63.2, 20, 6.32, 2, 0.632, 0.2 and 0 μM.
For orientation: Calcium assays in cells follow changes in intracellular calcium, usually with a dye or a luminescent sensor.

Values after ≈ are worked out from the molar mass of the structure shown.

For `CC(C)=CCC1=C(O)C(O)(CC=C(C)C)C(=O)C(C(=O)C(C)C)=C1O` (stereo not drawn) [Cohumulone, cohumulone], the “EC 50” value was determined as 1.153 µg/mL (≈ 3.31 µM). Besides, the “stimulating bitter taste receptor (Tas2R) signalling in human enteroendocrine cells” value (Hutu80, intracellular calcium) is “activity at the lowest concentration”.

Regarding `CC(C)=CCC1=C(O)C(C(=O)C(C)C)=C(O)C(CC=C(C)C)(CC=C(C)C)C1=O` [Colupulone, colupulone], the “EC 50” value stood at 12.72 µg/mL (≈ 31.8 µM).
